Entries after “also recorded” stand apart in the source; their conditions may differ. No end group written: not given here.
Key:
deltaF508-CFTR [1] = experiment: CFTR agonist evoked short circuit (ISC) current, Ussing epithelial voltage clamp; format: cell-based, human; settings: for summed ISC currents compared with Vehicle treatment: apical, one day at 27° C., CFFT006F cells, Dunnett's test
Text: To test for bioeffectiveness, for our exemplary invention to stabilize CFTR, we measured the chloride transport function homozygous deltaF508-CFTR cystic fibrosis human bronchial epithelial cells grown and differentiated on Snapwell™ filter inserts as CFTR agonist evoked short circuit (ISC) current. The ISC was the output of an Ussing epithelial voltage clamp apparatus after amiloride block of sodium current through the epithelial sodium channel (ENaC). ENaC current was monitored as the amiloride sensitive current component of the ISC. The objective of this study was to measure the ability of various compounds, including but limited to CT002, CT008, CT003, CT004, CT005, CT006, CT007, and AT0011 (peptide control), to restore function to defective deltaF508-CFTR in CFhBE cell monolayers (epithelia) after a one day incubation period on the apical surface of the epithelia. See FIG. 4 for sequences and ID numbers.
CT003, CT004, CT005, CT006, CT007, and AT0011 were combined with the known corrector VX-809. CT002 (WQVTRV) was incubated with 10 μL of the cell permeability enhancing reagent BioPORTER™. Statistical comparisons were made using Dunnett's test and Student's t-test with significance evaluated at P<0.05. The ISC current polarity convention used here records apical to basolateral sodium current and basolateral to apical chloride current as negative.
Referring now to the drawings, a first exemplary embodiment is illustrated and generally indicated in FIGS. 1, 2 and 3, which is the measurement of the chloride transport function of homozygous deltaF508-CFTR cystic fibrosis human bronchial epithelial cells grown and differentiated on Snapwell™ filter inserts as CFTR agonist evoked short circuit (ISC) current. The ISC was the output of an Ussing epithelial voltage clamp apparatus after amiloride block of sodium current through the epithelial sodium channel (ENaC). ENaC current was monitored as the amiloride sensitive current component of the ISC. The objective of this study was to measure the ability of candidate Test Articles and controls (CT002 (WQVTRV+BIOPORTER), CT008 (WQVTRV alone), CT003, CT004, CT005, CT006, CT007, and AT0011 control) to restore function to defective deltaF508-CFTR in CFhBE cell monolayers (epithelia) after a one day incubation period on the apical surface of the epithelia. These peptide compounds differed in their amino acid sequence to optimize solubility, intracellular permeability, stability and toxicity (CT003-CT007 shown here). The control peptides were non-optimized sequences (CT002 and CT008) and an off-target peptide control (AT0011).
CT003, CT004, CT005, CT006, CT007, and AT0011 were combined with the known corrector VX-809 and CT002 was incubated with 10 μL of the cell permeability enhancing reagent BioPORTER™. Statistical comparisons were made using Dunnett's test and Student's t-test with significance evaluated at P<0.05. The ISC current polarity convention used records apical to basolateral sodium current and basolateral to apical chloride current as negative.
All incubations were performed at 27±0.5° C. Test Articles were applied at their final concentrations to the apical surface of the cellular monolayers in 200 μL of Opti-MEM Reduced Serum Medium without addition of serum. […] Test Article incubations were approximately 24 hours. 150 μL of cycloheximide (20 μg/mL) was applied to the apical surface of the epithelia for the final 2 hours of peptide treatment, total volume 350 μL. Cycloheximide prevented new protein synthesis that might be otherwise conflated with test article efficacy. This incubation protocol mimics the dilution and clearance effect that will be encountered by topical delivery to the lungs. Test articles are applied at t=0 h, 10 μM in 200 μL, to the apical surface. 2000 μL of basolateral medium provides an immediate dilution effect (test article: 0.91 μM), then at t=22 h, a further […] of cycloheximide containing solution is further added, (test article: 0.85 μM). […]

deltaF508-CFTR [2] = settings: cited from earlier work
[3] = tested on: epithelial sodium channel (ENaC); experiment: Amiloride sensitive sodium current component of the ISC, Ussing assay; format: cell-based, human; settings: Test Article 10 uM + VX-809 1 uM, Student's test
Text: To test for bioeffectiveness, for our exemplary invention to stabilize CFTR, we measured the chloride transport function homozygous deltaF508-CFTR cystic fibrosis human bronchial epithelial cells grown and differentiated on Snapwell™ filter inserts as CFTR agonist evoked short circuit (ISC) current. The ISC was the output of an Ussing epithelial voltage clamp apparatus after amiloride block of sodium current through the epithelial sodium channel (ENaC). ENaC current was monitored as the amiloride sensitive current component of the ISC. […]
Referring now to the drawings, a first exemplary embodiment is illustrated and generally indicated in FIGS. 1, 2 and 3, which is the measurement of the chloride transport function of homozygous deltaF508-CFTR cystic fibrosis human bronchial epithelial cells grown and differentiated on Snapwell™ filter inserts as CFTR agonist evoked short circuit (ISC) current. […] ENaC current was monitored as the amiloride sensitive current component of the ISC. […]
Ussing Assay: All Ussing assays were performed at 27±0.5° C. and lasted for approximately 1 hour 40 minutes. The temperature was monitored throughout the experiment using a thermistor probe connected to the data acquisition system and inserted into the bath solution of one chamber. […]

[4] = Solubility of peptide sequences; format: physicochemical
[5] = Test Article 10 uM + VX-809 1 uM, Student's t-test

Cc1ccc(NC(=O)C2(c3ccc4c(c3)OC(F)(F)O4)CC2)nc1-c1cccc(C(=O)O)c1 [VX-809, reference compound]
summed ISC currents compared with Vehicle treatment (deltaF508-CFTR [1]; VX-809 1 μM alone): significantly above Vehicle treatment
summed ISC currents compared with expected level (deltaF508-CFTR [1]; VX-809 1 μM, apical incubation only, not in basolateral media): less than the expected level

ANSRWPTSII
function without BIOPORTER (deltaF508-CFTR [2]): neither sequence functions

Acety-YGRKKRRQRRR-glycoyl-WQVTRV-amide (Ac-YGRKKRRQRRR; not fully specified (C-terminus)) [CT007]
amiloride sensitive sodium current generated by ENaC compared to VX-809 alone [3]: significantly increased
lower concentration needed versus prior sequences with BIOPORTER (deltaF508-CFTR [1]; 10 μM CT007 vs 500 μM WQVTRV): > 50 times
improvement in reported efficacy versus WQVTRV and ANSRWPTSII with BIOPORTER (deltaF508-CFTR [1]; 10 uM vs 500 μM, at least): fifty-fold
additive efficacy to VX-809 (deltaF508-CFTR [1]; CT007 10 uM + VX-809 1 uM, CF bronchial epithelium, n=4): 36%
response to CFTRinh-172 compared with VX-809 1 uM (deltaF508-CFTR [1]; [5]): significantly increased
summed ISC currents (CFTR chloride current restoration) compared with VX-809 1 μM treatment (deltaF508-CFTR [1]; [5]): significantly greater; also recorded: significantly above VX-809 1 μM treatment
summed ISC currents compared with Vehicle treatment (deltaF508-CFTR [1]; Test Article 10 uM + VX-809 1 uM): significantly above Vehicle treatment
duration of therapeutic drug action (deltaF508-CFTR [1]; after transient topical apical dosing, test article removed before Ussing assay): at least 26 hours

WQVTRV [CT008, WQVTRV]
solubility at the effective concentration ([4]; 500 μM): largely insoluble
solubility in water ([4]; water / aqueous fluids): insoluble in water
